Laboratory results reported in patent publication US20250255923A1, “METHODS FOR EXTRACTING MELATONIN AND COMPOSITIONS THEREOF” (priority 2023, published 2025).

Assays:
Type in all cases: in vivo
[1] = system: mice; experiment: Sleep induced by sub-threshold dose of pentobarbital sodium in mice; settings: pentobarbital sodium 25 mg/kg 60 min after last dose, twice daily for three days, Diazepam 20 mg/kg BW, Tomato Extract 3 mg/kg BW (melatonin content), Synthesized Melatonin 5 mg/kg BW; for Number of Mice that Fell Asleep: 10 mice, within 30 minutes
[2] = system: mice; experiment: Sleep induced by over-threshold dose of pentobarbital sodium in mice; settings: pentobarbital sodium 40 mg/kg 60 min after last dose, twice daily for three days, Diazepam 20 mg/kg BW, Tomato Extract 3 mg/kg BW (melatonin content), Synthesized Melatonin 5 mg/kg BW; for Number of Mice that Fell Asleep: 10 mice, within 30 minutes
[3] = system: mice; experiment: Threshold dose experiment of pentobarbital sodium (sleep rate within 30 minutes post-injection); settings: for Sleep Rate (%) / Number of Mice that Fell Asleep: within 30 minutes; for Number of Mice that Fell Asleep: 10 mice
Experimental: Threshold Dose Experiment of Pentobarbital Sodium: A total of 40 mice were randomly divided into four groups, with 10 mice in each group. Each group received an intraperitoneal injection of pentobarbital sodium at the following doses: 25 mg/kg bodyweight (BW), 30 mg/kg BW, 35 mg/kg BW, and 40 mg/kg BW. The sleep rates of the mice were recorded within 30 minutes post-injection.
Based on the experimental results, it appears that the lower threshold dose of pentobarbital sodium is 25 mg/kg BW (“sub-threshold dose”). Based on the experimental results, it appears that the upper threshold dose of pentobarbital sodium is 40 mg/kg BW (“over-threshold dose”). The lower threshold was used for subsequent studies.

[4] = mice, intraperitoneal, sleep within 30 minutes

Row | Compound | Sleep Latency [1] [min] | Sleep Rate (%) [1] [%] | Total Sleep Duration [1] [min] | Number of Mice that Fell Asleep [1] | Sleep Latency [2] [min] | Sleep Rate (%) [2] [%] | Total Sleep Duration [2] [min] | Number of Mice that Fell Asleep [2] | Sleep Rate (%) ([3]; 25 mg/kg BW intraperitoneal) | Number of Mice that Fell Asleep ([3]; 25 mg/kg BW intraperitoneal) | Sleep Rate (%) ([3]; 30 mg/kg BW intraperitoneal) | Number of Mice that Fell Asleep ([3]; 30 mg/kg BW intraperitoneal) | Sleep Rate (%) ([3]; 35 mg/kg BW intraperitoneal) | Number of Mice that Fell Asleep ([3]; 35 mg/kg BW intraperitoneal) | Sleep Rate (%) ([3]; 40 mg/kg BW intraperitoneal) | Number of Mice that Fell Asleep ([3]; 40 mg/kg BW intraperitoneal) | lower threshold dose (sub-threshold dose) [3, 4] [mg/kg BW] | upper threshold dose (over-threshold dose) [3, 4] [mg/kg BW]
1 | CCCC(C)C1(CC)C(=O)NC(=O)NC1=O (stereo not shown) [Pentobarbital Sodium, pentobarbital sodium] | 12.37 | 10 | 11.50 | 1 | 12.69 | 100 | 13.50 | 10 | 10 | 1 | 50 | 5 | 80 | 8 | 100 | 10 | 25 | 40
2 | COc1ccc2[nH]cc(CCNC(C)=O)c2c1 [Chemically Synthesized Melatonin, N-acetyl-5-methoxytruptamine] | 6.33 | 100 | 21.56 | 10 | 4.53 | 100 | 62.56 | 10 |  |  |  |  |  |  |  |  |  | 
3 | CN1C(=O)CN=C(c2ccccc2)c2cc(Cl)ccc21 [Diazepam] | 7.89 | 100 | 19.23 | 10 | 5.13 | 100 | 58.23 | 10 |  |  |  |  |  |  |  |  |  | 
